The supplement of paper PMC4862054

Tested on: MDA-MB-468
Experiment: normalised response (% of control), CellTox Green; higher = less cell death (100 = DMSO, 0 = benzethonium chloride kill control)
Conditions: incubation time: 72 h
Summary of the method: (§1)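 After 72 h with compound in 384-well plates, breast cancer cell lines seeded as 20 µl suspension were read for CellTox Green fluorescence at 485/520 nm. CellTiter-Glo luminescence was then read after 10 min at room temperature. Compound was present at 5 concentrations in 10-fold steps over a 10,000-fold range set per compound, and plates were normalised to 0.1 % DMSO (100) and a positive kill control (0). Values are normalised signals, each at a single concentration.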

COc1cc2c(NC3CCN(C(C)C)CC3)nc(N3CCC(F)(F)CC3)nc2cc1OCCCN1CCCC1 [UNC0642] (10000 nM) was tested. Which normalised response did it give?
The normalised response was -31.3%.

Tested on: MFM-223
Experiment: as above
Conditions: incubation time: 72 h
Summary of the method: as §1

COC(=O)c1ccc2c(c1)NC(=O)/C2=C(\Nc1ccc(N(C)C(=O)CN2CCN(C)CC2)cc1)c1ccccc1 [Nintedanib] (10000 nM) was tested. Which normalised response did it give?
Its normalised response is 92.7%.

With COc1cc2c(NC3CCN(C(C)C)CC3)nc(N3CCC(F)(F)CC3)nc2cc1OCCCN1CCCC1 [UNC0642] (10000 nM) as the compound, how does the normalised response read?
The normalised response was 81.9%.

Tested on: BT-474
Experiment: normalised response (% of control), CellTiter-Glo; higher = more viable cells (100 = DMSO, 0 = benzethonium chloride kill control)
Conditions: incubation time: 72 h
Procedure: (§2)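 DSRT, 72 h incubation, CellTox Green / CellTiter-Glo readout. Signal is normalised to DMSO and benzethonium chloride controls. Value is the normalised response at the highest dose.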

How did the normalised response turn out when COC(=O)c1ccc2c(c1)NC(=O)/C2=C(\Nc1ccc(N(C)C(=O)CN2CCN(C)CC2)cc1)c1ccccc1 [Nintedanib] (10000 nM) was run?
Its normalised response is 3.88%.

Which normalised response does the source give for COc1cc2c(NC3CCN(C(C)C)CC3)nc(N3CCC(F)(F)CC3)nc2cc1OCCCN1CCCC1 [UNC0642] (10000 nM) here?
Its normalised response is 33.3%.

Tested on: BT-549
Experiment: as above
Conditions: incubation time: 72 h
Procedure: as §2

How did the normalised response turn out when COC(=O)c1ccc2c(c1)NC(=O)/C2=C(\Nc1ccc(N(C)C(=O)CN2CCN(C)CC2)cc1)c1ccccc1 [Nintedanib] (10000 nM) was run?
The normalised response was 0.72%.

How did the normalised response turn out when COc1cc2c(NC3CCN(C(C)C)CC3)nc(N3CCC(F)(F)CC3)nc2cc1OCCCN1CCCC1 [UNC0642] (10000 nM) was run?
Its normalised response is 56.3%.

Tested on: CAL-120
Experiment: as above
Conditions: incubation time: 72 h
Procedure: as §2

How did the normalised response turn out when COC(=O)c1ccc2c(c1)NC(=O)/C2=C(\Nc1ccc(N(C)C(=O)CN2CCN(C)CC2)cc1)c1ccccc1 [Nintedanib] (10000 nM) was run?
The normalised response was 52.1%.

With COc1cc2c(NC3CCN(C(C)C)CC3)nc(N3CCC(F)(F)CC3)nc2cc1OCCCN1CCCC1 [UNC0642] (10000 nM) as the compound, how does the normalised response read?
The normalised response was 60.9%.

Tested on: CAL-148
Experiment: as above
Conditions: incubation time: 72 h
Procedure: as §2

Which normalised response does the source give for COC(=O)c1ccc2c(c1)NC(=O)/C2=C(\Nc1ccc(N(C)C(=O)CN2CCN(C)CC2)cc1)c1ccccc1 [Nintedanib] (10000 nM) here?
The normalised response was 90.8%.

COc1cc2c(NC3CCN(C(C)C)CC3)nc(N3CCC(F)(F)CC3)nc2cc1OCCCN1CCCC1 [UNC0642] (10000 nM) was tested. Which normalised response did it give?
Its normalised response is 32.4%.

Tested on: CAL-51
Experiment: as above
Conditions: incubation time: 72 h
Procedure: as §2

COC(=O)c1ccc2c(c1)NC(=O)/C2=C(\Nc1ccc(N(C)C(=O)CN2CCN(C)CC2)cc1)c1ccccc1 [Nintedanib] (10000 nM) was tested. Which normalised response did it give?
The normalised response was 2.78%.

How did the normalised response turn out when COc1cc2c(NC3CCN(C(C)C)CC3)nc(N3CCC(F)(F)CC3)nc2cc1OCCCN1CCCC1 [UNC0642] (10000 nM) was run?
The normalised response was 79%.

Tested on: CAL-85-1
Experiment: as above
Conditions: incubation time: 72 h
Procedure: as §2

Which normalised response does the source give for COC(=O)c1ccc2c(c1)NC(=O)/C2=C(\Nc1ccc(N(C)C(=O)CN2CCN(C)CC2)cc1)c1ccccc1 [Nintedanib] (10000 nM) here?
The normalised response was 87.7%.

How did the normalised response turn out when COc1cc2c(NC3CCN(C(C)C)CC3)nc(N3CCC(F)(F)CC3)nc2cc1OCCCN1CCCC1 [UNC0642] (10000 nM) was run?
Its normalised response is 5.34%.

Tested on: DU-4475
Experiment: as above
Conditions: incubation time: 72 h
Procedure: as §2

COC(=O)c1ccc2c(c1)NC(=O)/C2=C(\Nc1ccc(N(C)C(=O)CN2CCN(C)CC2)cc1)c1ccccc1 [Nintedanib] (10000 nM) was tested. Which normalised response did it give?
The normalised response was 84.8%.

COc1cc2c(NC3CCN(C(C)C)CC3)nc(N3CCC(F)(F)CC3)nc2cc1OCCCN1CCCC1 [UNC0642] (10000 nM) was tested. Which normalised response did it give?
Its normalised response is 76.3%.

Tested on: HCC1143
Experiment: as above
Conditions: incubation time: 72 h
Procedure: as §2

How did the normalised response turn out when COC(=O)c1ccc2c(c1)NC(=O)/C2=C(\Nc1ccc(N(C)C(=O)CN2CCN(C)CC2)cc1)c1ccccc1 [Nintedanib] (10000 nM) was run?
Its normalised response is 48%.

With COc1cc2c(NC3CCN(C(C)C)CC3)nc(N3CCC(F)(F)CC3)nc2cc1OCCCN1CCCC1 [UNC0642] (10000 nM) as the compound, how does the normalised response read?
The normalised response was 70.4%.

Tested on: HCC1599
Experiment: as above
Conditions: incubation time: 72 h
Procedure: as §2

COC(=O)c1ccc2c(c1)NC(=O)/C2=C(\Nc1ccc(N(C)C(=O)CN2CCN(C)CC2)cc1)c1ccccc1 [Nintedanib] (10000 nM) was tested. Which normalised response did it give?
The normalised response was 84%.

COc1cc2c(NC3CCN(C(C)C)CC3)nc(N3CCC(F)(F)CC3)nc2cc1OCCCN1CCCC1 [UNC0642] (10000 nM) was tested. Which normalised response did it give?
Its normalised response is 94.2%.

Tested on: HCC1937
Experiment: as above
Conditions: incubation time: 72 h
Procedure: as §2

How did the normalised response turn out when COC(=O)c1ccc2c(c1)NC(=O)/C2=C(\Nc1ccc(N(C)C(=O)CN2CCN(C)CC2)cc1)c1ccccc1 [Nintedanib] (10000 nM) was run?
The normalised response was 27.6%.

How did the normalised response turn out when COc1cc2c(NC3CCN(C(C)C)CC3)nc(N3CCC(F)(F)CC3)nc2cc1OCCCN1CCCC1 [UNC0642] (10000 nM) was run?
Its normalised response is 56.7%.

Tested on: HDQ-P1
Experiment: as above
Conditions: incubation time: 72 h
Procedure: as §2

How did the normalised response turn out when COC(=O)c1ccc2c(c1)NC(=O)/C2=C(\Nc1ccc(N(C)C(=O)CN2CCN(C)CC2)cc1)c1ccccc1 [Nintedanib] (10000 nM) was run?
The normalised response was 40.1%.

COc1cc2c(NC3CCN(C(C)C)CC3)nc(N3CCC(F)(F)CC3)nc2cc1OCCCN1CCCC1 [UNC0642] (10000 nM) was tested. Which normalised response did it give?
The normalised response was 48.9%.

Tested on: Hs578T
Experiment: as above
Conditions: incubation time: 72 h
Procedure: as §2

COC(=O)c1ccc2c(c1)NC(=O)/C2=C(\Nc1ccc(N(C)C(=O)CN2CCN(C)CC2)cc1)c1ccccc1 [Nintedanib] (10000 nM) was tested. Which normalised response did it give?
The normalised response was 82.3%.

COc1cc2c(NC3CCN(C(C)C)CC3)nc(N3CCC(F)(F)CC3)nc2cc1OCCCN1CCCC1 [UNC0642] (10000 nM) was tested. Which normalised response did it give?
The normalised response was 91.6%.

Tested on: MCF-10A
Experiment: as above
Conditions: incubation time: 72 h
Procedure: as §2

For COC(=O)c1ccc2c(c1)NC(=O)/C2=C(\Nc1ccc(N(C)C(=O)CN2CCN(C)CC2)cc1)c1ccccc1 [Nintedanib] (10000 nM), which normalised response is on record?
The normalised response was 40.1%.

For COc1cc2c(NC3CCN(C(C)C)CC3)nc(N3CCC(F)(F)CC3)nc2cc1OCCCN1CCCC1 [UNC0642] (10000 nM), which normalised response is on record?
Its normalised response is 40.9%.

Tested on: MDA-MB-231
Experiment: as above
Conditions: incubation time: 72 h
Procedure: as §2

With COC(=O)c1ccc2c(c1)NC(=O)/C2=C(\Nc1ccc(N(C)C(=O)CN2CCN(C)CC2)cc1)c1ccccc1 [Nintedanib] (10000 nM) as the compound, how does the normalised response read?
Its normalised response is 1.73%.

For COc1cc2c(NC3CCN(C(C)C)CC3)nc(N3CCC(F)(F)CC3)nc2cc1OCCCN1CCCC1 [UNC0642] (10000 nM), which normalised response is on record?
Its normalised response is 18.8%.

Tested on: MDA-MB-436
Experiment: as above
Conditions: incubation time: 72 h
Procedure: as §2

COC(=O)c1ccc2c(c1)NC(=O)/C2=C(\Nc1ccc(N(C)C(=O)CN2CCN(C)CC2)cc1)c1ccccc1 [Nintedanib] (10000 nM) was tested. Which normalised response did it give?
Its normalised response is 17.1%.

Which normalised response does the source give for COc1cc2c(NC3CCN(C(C)C)CC3)nc(N3CCC(F)(F)CC3)nc2cc1OCCCN1CCCC1 [UNC0642] (10000 nM) here?
Its normalised response is 19.1%.

Tested on: MDA-MB-453
Experiment: as above
Conditions: incubation time: 72 h
Procedure: as §2

How did the normalised response turn out when COC(=O)c1ccc2c(c1)NC(=O)/C2=C(\Nc1ccc(N(C)C(=O)CN2CCN(C)CC2)cc1)c1ccccc1 [Nintedanib] (10000 nM) was run?
The normalised response was 73.4%.

With COc1cc2c(NC3CCN(C(C)C)CC3)nc(N3CCC(F)(F)CC3)nc2cc1OCCCN1CCCC1 [UNC0642] (10000 nM) as the compound, how does the normalised response read?
The normalised response was 5.97%.

Tested on: MDA-MB-468
Experiment: as above
Conditions: incubation time: 72 h
Procedure: as §2

For COC(=O)c1ccc2c(c1)NC(=O)/C2=C(\Nc1ccc(N(C)C(=O)CN2CCN(C)CC2)cc1)c1ccccc1 [Nintedanib] (10000 nM), which normalised response is on record?
The normalised response was 4.97%.

Which normalised response does the source give for COc1cc2c(NC3CCN(C(C)C)CC3)nc(N3CCC(F)(F)CC3)nc2cc1OCCCN1CCCC1 [UNC0642] (10000 nM) here?
Its normalised response is 3.41%.

Tested on: MFM-223
Experiment: as above
Conditions: incubation time: 72 h
Procedure: as §2

COC(=O)c1ccc2c(c1)NC(=O)/C2=C(\Nc1ccc(N(C)C(=O)CN2CCN(C)CC2)cc1)c1ccccc1 [Nintedanib] (10000 nM) was tested. Which normalised response did it give?
The normalised response was 50.6%.

How did the normalised response turn out when COc1cc2c(NC3CCN(C(C)C)CC3)nc(N3CCC(F)(F)CC3)nc2cc1OCCCN1CCCC1 [UNC0642] (10000 nM) was run?
Its normalised response is 32.9%.

Tested on: SK-BR-3
Experiment: as above
Conditions: incubation time: 72 h
Procedure: as §2

Which normalised response does the source give for COC(=O)c1ccc2c(c1)NC(=O)/C2=C(\Nc1ccc(N(C)C(=O)CN2CCN(C)CC2)cc1)c1ccccc1 [Nintedanib] (10000 nM) here?
The normalised response was 71%.

COc1cc2c(NC3CCN(C(C)C)CC3)nc(N3CCC(F)(F)CC3)nc2cc1OCCCN1CCCC1 [UNC0642] (10000 nM) was tested. Which normalised response did it give?
The normalised response was 29.6%.
